Reference: PubChem BioAssay (NCI)
Values joined by “and” are separate entries in the source; they are usually repeats but may differ in a detail not shown here. Identical values can stand only once.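 Values below derive from 48-hour exposures of cells grown in 96-well plates, with endpoints linearly interpolated between the two concentrations bracketing the appropriate inhibition level. GI50 marks 50% less growth. TGI: concentration producing complete growth inhibition.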

Tests used:
Experiment in all cases: inhibition of tumour cell growth, NCI panel, 48 h
[1] = test system: OVCAR-8 ovarian
[2] = test system: A498 renal
[3] = test system: UACC-62 melanoma
[4] = test system: SF-539 CNS
[5] = test system: M14 melanoma
[6] = test system: ACHN renal
[7] = test system: HCT-15 colon
[8] = test system: OVCAR-5 ovarian
[9] = test system: NCI/ADR-RES ovarian
[10] = test system: SNB-75 CNS

| Structure (SMILES) | GI50 [1] [µM] | TGI [1] | GI50 [2] [µM] | TGI [2] [µM] | GI50 [3] [µM] | TGI [3] | GI50 [4] [µM] | TGI [4] [µM] | GI50 [5] [µM] | TGI [5] [µM] | GI50 [6] [µM] | TGI [6] [µM] | GI50 [7] [µM] | TGI [7] [µM] | GI50 [8] [µM] | TGI [8] [µM] | GI50 [9] [µM] | TGI [9] [µM] | GI50 [10] [µM] | TGI [10] [µM] |
| --- | --- | --- | --- | --- | --- | --- | --- | --- | --- | --- | --- | --- | --- | --- | --- | --- | --- | --- | --- | --- |
| COc1ccc2c(Nc3ccc(NS(C)(=O)=O)cc3)c3ccccc3nc2c1 | 0.432 | 5.26 µM | 0.375 | 2.05 | 0.383 | 1.93 µM | 0.525 | 2.28 | 0.599 | 2.03 | 0.217 | 1.58 | 1.41 | 11.4 | 1.02 | 4.91 | 3.63 | 28.6 | 0.718 | 2.12 |
| COc1cc(/C=C2\CC3C4CC=C5C[C@@H](OC(C)=O)CC[C@]5(C)C4CC[C@]3(C)C2=O)ccc1OCCCn1ccnc1 (stereo partly drawn) | 11 | 21.6 µM | 9.31 | 21.6 | 8.4 | 16.5 µM | 6.89 | 14.2 | 9.28 | 17.9 | 9.81 | 21 | 9.52 | 20.4 | 11.9 | 40.9 | 8.94 | 19.5 |  |  |
| NC(=O)c1cc(Br)cc(C2CCCCC2)c1O | 14.4 | 30 µM | 1.01 | 14.8 | 11.5 | 23.9 µM | 15.2 | 30.2 | 12.8 | 25.6 | 12.9 | 25.5 | 13.7 | 30.7 | 13.9 | 27.8 | 11 | 23.9 | 11.9 | 25.9 |
| O=C1CSC(/C(=C\c2ccc(Cl)cc2)c2nc3ccccc3[nH]2)=N1 |  | 32 µM |  | 16 |  | 33.5 µM |  | 2.06 |  | 40.3 |  | 19 |  | 52.4 |  | 33.5 |  | 36.9 |  | 28.8 |
| COC1CC2C=C(C)/C=C/C=C/C(=O)NC(c3ccccc3)C/C=C/CCC(O)CC(=O)C2=C1O (stereo not drawn) | 0.208 | 0.904 µM | 0.166 | 0.654 | 0.318 | 1.54 µM | 0.28 | 0.912 | 0.31 | 1.47 | 0.311 | 1.14 | 0.274 | 1.29 | 0.357 | 1.24 | 0.309 | 1.19 | 0.208 | 0.828 |
| COC(=O)c1c2c(c(C)[n+]([O-])c1C)C(=O)C=C(NCc1ccc(F)c(F)c1)C2=O | 0.291 | 1.13 µM | 0.931 | 2.43 | 0.0618 | 0.612 µM | 0.487 | 1.67 | 0.274 | 1.38 | 0.572 | 2.01 | 0.235 | 1.44 | 1.14 | 2.49 | 0.313 | 1.65 | 1.63 | 2.99 |
| CCN1C(=S)N(CC)C2C1NC(=S)N2/N=C/C=C/c1ccccc1 (stereo not drawn) | 4.47 | 23.5 µM | 0.641 | 4.67 | 1.37 | 14.9 µM | 1.67 | 5.4 | 0.879 | 12.9 | 4.87 | 18.9 | 0.77 | 14.3 | 3.92 | 16.9 | 1.54 | 12.6 | 1.09 | 5.65 |
| Cc1sc(C)c(Cc2c(C)sc(C)c2CCl)c1CCl | > 100 | > 100 µM | > 100 | > 100 |  |  | > 100 | > 100 | > 100 | > 100 | > 100 | > 100 | > 100 | > 100 | > 100 | > 100 | > 100 | > 100 | 51.5 | > 100 |
| Cc1cc(C)c(C[N+](C)(C)C)c(C)c1C | 0.328 | > 41.6 µM | 0.729 | 8.66 | 0.538 | 18.9 µM | 0.292 | 4.86 | 0.374 | 11.1 | 0.173 | > 100 | 0.313 | 19.4 | 0.48 | > 62.1 | 0.475 | 16.3 | 0.402 | 11.5 |
| O=c1nc(Nc2cccc(Cl)c2)oc2cc(Cl)oc(=O)c12 | 7.06 | 32.1 µM | 10.9 | 27.3 | 5.79 | 21.3 µM | 4 | 21 | 8.37 | 26.9 | 5 | 24.8 | 5.82 | 28.3 | 18.5 | 46.2 | 13.4 | 70.5 | 6.96 | 21.4 |
| C=C1C(=O)OC2CC1C(O)C/C(C)=C/CC/C(C)=C/C(O)CC2C (stereo not drawn) |  | 4.72 µM |  | 9.16 |  | 6.1 µM |  | 6.55 |  | 9.63 |  | 3.75 |  | 4.95 |  | 24.7 |  | 4.8 |  | 16.3 |
| OCC1OC(n2ccc3c(NO)ncnc32)C(O)C1O (stereo not drawn) | 0.184 | 1.94 µM | 0.152 | 0.794 | 0.128 | 0.326 µM | 0.288 | 1.29 | 0.077 | 0.578 | 0.0391 | 3.17 | 0.118 | 1.52 | 0.247 | 6.33 | 0.238 | 1.64 | 0.172 | 1.82 |
| COc1cc2c3c(c1)c1cc(OC)c(OC)cc1c[n+]3CC2 | 1.86 | 50 µM and 43.6 µM | > 100 | > 100 | 28.7 | 50 µM and > 100 µM |  | 50 | 63.8 | > 100 | > 100 | > 100 | > 100 | > 100 | > 100 | > 100 | > 100 | > 100 |  |  |
| CN1CCCN(C)C1c1cc([N+](=O)[O-])ccc1O |  | > 100 µM |  | > 100 |  | 44.3 µM |  | 74.9 |  | 58.5 |  | 64.3 |  | > 100 |  | > 100 |  | > 100 |  | > 100 |
| C#CC1(O)C(COP(=O)(O)OC2CC(n3cc(F)c(=O)[nH]c3=O)OC2CO)OC(n2ccc(N)nc2=O)C1O (stereo not drawn) | < 0.01 | 14.5 µM | 0.0824 | 1.87 | 0.019 | 1.82 µM | < 0.0105 | 0.22 | < 0.0211 | 0.774 | < 0.01 |  | < 0.01 | > 38.9 | 0.154 | > 33.5 | < 0.012 |  | < 0.0169 | 1.18 |
| CC(C)c1ccc(C(=O)Nc2sc3c(c2C#N)CCC(=O)C3)cc1 | 0.431 | > 100 µM | 1.92 | 6.29 | 0.318 | 1.6 µM | 0.337 | 1.41 | 0.592 | 26.4 | 0.33 | 1.06 | 0.31 | 1.95 | 0.552 | 5.11 | 0.464 | 11.2 | 0.601 | 5.38 |
| Nc1ccc2c(c1)NCCN2 |  | > 100 µM |  |  |  | > 100 µM |  | > 100 |  | > 100 |  | > 100 |  | > 100 |  | > 100 |  | > 100 |  | > 100 |
| NNc1cccc(/C=C/c2ccccc2)cc1=O | 3.74 | > 100 µM | 13 | 55.7 | 5.33 | 93.1 µM | 23 | > 100 | 12.4 | 44.7 | 7.27 | > 100 | 3.8 | > 100 | 45.9 | > 100 | 4.36 | > 100 | 31 | > 100 |
| Cn1ncc2c(N)nc(N3CCCCC3)nc21 | 25.9 | 76.1 µM | 18.5 | 42.9 | 19.6 | 37.3 µM | 25.4 | > 100 | 42.6 | > 100 | 33.6 | > 100 | 26.2 | 82.5 | 38.5 | > 100 | > 100 | > 100 | 29.7 | > 100 |
| CC(C)c1ccc(/C(C(=O)O)=C(\O)C(=O)O)cc1 |  | > 100 µM |  | > 100 |  | > 100 µM |  | > 100 |  | > 100 |  | > 100 |  | > 100 |  | > 100 |  | > 100 |  | > 100 |
| CCOC(=O)c1[nH]c(-c2ccc(Cl)cc2)cc1-c1cccnc1 | 2.51 | > 100 µM | 0.811 | 9.37 | 0.843 | > 100 µM | 0.423 | 7.14 |  |  | 0.714 | > 100 | 0.437 | > 100 | 1.17 | > 100 | 0.511 | > 100 | 0.738 | > 100 |
| COCCOC(=O)NC(=O)Nc1ccc(/C(=N/O)c2ccc(Cl)cc2)cc1 | 0.188 | 34.7 µM | 0.179 | 3.46 | 0.109 | 15.8 µM | 0.121 | 0.341 | 0.0843 | 18.4 | 0.186 | 48.8 | 0.0842 | 19.8 | 0.308 | 52.8 |  | 7.31 | 0.129 | 7.94 |
| CCOC(=O)C(CO)c1nc2c([nH]c1=O)c(=O)n(C)c(=O)n2C (stereo not drawn) |  | > 100 µM |  | > 100 |  | > 100 µM |  | > 100 |  | > 100 |  | > 100 |  | > 100 |  | > 100 |  | > 100 |  |  |
| Cc1nc2sc(C(=O)Nc3cccc4ccccc34)c(N)c2cc1C(=O)c1ccccc1 | 2.15 | > 50 µM | 0.15 | 1.17 | 2.42 | > 50 µM | 1.06 | 2.71 | 1.23 | > 50 | 2.73 | > 50 | 1.41 | > 50 | 2.27 | > 50 | 1.43 | > 50 | 1.04 | > 50 |
| O=C(c1ccc2ncc(-c3nc(NC4CC4)ncc3F)n2c1)N1CCOCC1 | 2.44 | > 100 µM | 1.63 | 3.82 | 1.54 | 3.6 µM | 1.8 | 4.79 | 1.9 | 4.07 | 1.56 | 12.4 | 2.51 | > 100 | 2.16 | 8.97 | 2.92 | 19.2 | 1.47 | 3.58 |
| C[C@]1(CO)[C@H]2CC[C@@]34C=C[C@@](CO)(CC[C@H]3[C@]2(C)CC[C@H]1O)C4 |  | > 100 µM |  | > 100 |  | > 100 µM |  | > 100 |  | > 100 |  | > 100 |  | > 100 |  | > 100 |  | > 100 |  | > 100 |
| CC(C)(C)NCc1cc(C(C)(C)C)cc(-c2ccc(Cl)cc2)c1O |  |  |  |  |  | 32 µM |  | 27.9 |  | 28.8 |  | 26.7 |  | 25.7 |  | 28.2 |  | 32.4 |  | 22.7 |
| CCCCNN |  | > 100 µM |  | > 100 |  | > 100 µM |  |  |  | > 100 |  | > 100 |  | > 100 |  | > 100 |  | > 100 |  | > 100 |
| COc1cc(/C=C\[N+](=O)[O-])ccc1OCc1ccccc1 | 2.91 | 9.56 µM |  |  | 1.7 | 4.67 µM | 2.09 | 4.18 | 1.65 | 4.31 | 1.99 | 4.36 | 1.72 | 3.51 | 3.29 | 13.7 | 3.5 | 24.9 | 1.63 | 6.79 |
| COc1cc2c3c(n(CCCNCCN)c(=O)c2cc1OC)-c1cc2c(cc1C3=O)OCO2 | 0.259 | 6.73 µM |  |  | 1.01 | 2.64 µM | 0.39 | 2.22 | 0.738 | 5.26 | 0.304 | 1.01 |  | > 40.3 | 1.39 | 10.5 | 18.9 | > 62.4 | 6.34 | 21.5 |
